Experimental data: US10639313B2, “Compound for inhibition of delta-5-desaturase (D5D) and treatment of cancer and inflammation” (NDSU Research Foundation, priority 2017, dated 2020)
Several values for one entry are separate records, joined by “and”; a condition that tells them apart may be missing. Identical values can stand only once. Like-named read-outs stand apart in the source and are kept apart here.

Columns and labels:
[1] = target: T1, D5D (Rattus norvegicus, UniProt Q920R3); assay: Rat liver microsomal assay, conversion of DGLA to AA by D5D; type: biochemical
T1 construct: Rat liver microsomal assay was conducted

[2] = test system: HCA-7/C29 cells; assay: 8-HOA formation from cellular COX-2-catalyzed DGLA peroxidation (GC/MS) in HCA-7/C29; type: cell-based, human; details: 10 μM compound, DGLA-enriched medium, threshold >0.5 μM in 10^6 cells, control 0.33
Method: (§1) Colony formation assay was conducted in a total of three human cancer cell lines featuring high levels of COX-2, including HCA-7 (colon cancer), A549 (non-small cell lung cancer), BxPC-3 (pancreatic cancer), upon treatment of iminodibenzyl (10 μM). GC/MS was used to measure 8-HOA formation as described elsewhere.

[3] = test system: HCA-7 xenograft tumor; assay: Xenograft tumor model, nude mice bearing HCA-7; type: in vivo; details: HCA-7 tumor; for [8-HOA]: control 0.03
Method: (§2) About two million of selected cancer cells, suspended in 50 μL of PBS, were implanted into hind flank of nude mice. Feeding with standard diet for two weeks after the cell implantation (to allow tumors reach the certain size), mice were then placed into the treatment groups. Twenty mice were randomly divided to four experimental groups (vehicle control, DGLA, […] inhibitor, and DGLA+D5D inhibitor combination) in each treatment regime to assess their anti-tumor responses. Two treatment regimes (e.g., treatment applied on every other day or every day up to 4-week) were assessed for their anti-tumor responses in HAC-7 and A459 tumor models. Every day treatment plan was listed in FIG. 9 as xenograft models and treatment example. Tumor growth was monitored twice a week using a digital caliper as well as via ultrasound image system for treatment outcome. Tumor volume was calculated: V=L×W2/2. At the endpoint (4-week treatment), the mice were euthanized, and the tumor tissues were collected, weighted, conducted for other analysis.

[4] = test system: A549 xenograft tumor; assay: Xenograft tumor model, nude mice bearing A549; type: in vivo; details: for Tumor Growth Reduction % (vs. Control) / [8-HOA]: A549 (printed A459) tumor, every day, 4-week, DGLA 5 mg/mouse oral, iminodibenzyl 15 mg/kg i.p.; for [8-HOA]: control 0.02
Method: as §2, with “analysis. Tumor Growth Reduction Rate (%, Tables 5, 7) in each experiment after 4-week treatment was used to assess their associated anti-tumor responses: […]” for “analysis.”

[5] = test system: Lewis Lung Carcinoma Cells (LLC); assay: Lewis Lung Carcinoma primary tumor growth and metastatic lung tumor formation; type: in vivo, C57/B6 mice; details: for Primary Tumor size (mm^3) / 8-HOA (μM) in Blood / Reduced Tumor Growth vs. V.C.: dose every day; for Primary Tumor size (mm^3) / Reduced Tumor Growth vs. V.C.: DGLA 5 mg/mouse, iminodibenzyl i.p. 15 mg/kg; for 8-HOA (μM) in Blood: vehicle 0.015; for Reduced Tumor Growth vs. V.C.: primary tumor; for mice that developed metastatic lung tumor: four-week treatment, Day 28 (combination up to Day 31)
Method: One million Lewis Lung Carcinoma Cells (LLC,), suspended in 50 μL of PBS, were implanted into front/hind flanks (0.5 million each) of C57/B6 mice. A total of twenty […] mice were divided to four groups: six in vehicle control, six in DGLA+iminodibenzyl combination, three in DGLA (oral), and five in iminodibenzyl (i.p.) group. Every day treatment regimen was started one-week after LLC cells implanted into mice blank. Primary tumor growth was monitored twice a week using a digital caliper as well as via ultrasound image system for treatment outcome. Tumor volume was calculated: […] Tumor Growth Reduction Rate (%, Table 8) in each experiment after 4-week treatment was used to assess their associated anti-tumor responses: […]

[6] = test system: A549 cells; assay: 8-HOA formation from COX-2-catalyzed DGLA peroxidation (GC/MS) in A549; type: cell-based, human; details: A549 (A-495 [sic]) cells; 10 μM; DGLA-enriched media; control 0.29
Method: as §1

[7] = test system: HCA-7 (colon cancer); assay: Colony formation assay / cell survival, HCA-7; type: cell-based, human; details: for Cell Survival Rate: HCA-7/C29, DGLA-enriched media, control 100%
Method: as §1

[8] = test system: BxPC-3 cells; assay: 8-HOA formation from COX-2-catalyzed DGLA peroxidation (GC/MS) in BxPC-3; type: cell-based, human; details: 10 μM, DGLA-enriched media, control 0.26
Method: as §1

[9] = test system: A549 (non-small cell lung cancer); assay: Colony formation assay / cell survival, A549; type: cell-based, human; details: A549 (A-495 [sic]), 10 μM, DGLA-enriched media, control 100%
Method: as §1

[10] = test system: BxPC-3 (pancreatic cancer); assay: Colony formation assay / cell survival, BxPC-3; type: cell-based, human; details: 10 μM, DGLA-enriched media, control 100%
Method: as §1

[11] = test system: BxPC-3 xenograft tumor; assay: Xenograft tumor model, nude mice bearing BxPC-3; type: in vivo; details: BxPC-3 tumor, twice/week up to 4-week, gemcitabine 30 mg/kg, DGLA 8 mg/mouse, iminodibenzyl 25 mg/kg
[12] = every day, 4-week, DGLA 5 mg/mouse oral, iminodibenzyl 15 mg/kg i.p.
[13] = inhibition of D5D conversion of DGLA to AA, rat liver microsomes, read-out: IC50 (rat microsome)

T1 sequence (Q920R3 whole entry): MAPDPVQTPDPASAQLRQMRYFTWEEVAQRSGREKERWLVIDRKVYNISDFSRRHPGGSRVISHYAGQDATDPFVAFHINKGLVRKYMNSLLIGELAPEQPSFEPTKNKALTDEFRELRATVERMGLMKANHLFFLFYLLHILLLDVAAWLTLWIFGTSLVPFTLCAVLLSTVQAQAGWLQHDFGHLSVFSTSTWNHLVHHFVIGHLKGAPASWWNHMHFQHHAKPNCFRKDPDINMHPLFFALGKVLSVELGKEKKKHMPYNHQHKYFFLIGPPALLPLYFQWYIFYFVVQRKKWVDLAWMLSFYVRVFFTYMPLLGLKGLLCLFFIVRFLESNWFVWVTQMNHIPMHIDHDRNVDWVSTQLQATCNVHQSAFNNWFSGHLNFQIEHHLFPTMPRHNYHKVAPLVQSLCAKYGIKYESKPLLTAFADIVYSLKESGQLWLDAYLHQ

Question: Which IC50 [1] does the source give for `COc1cc(/C=C/C(=O)CC(=O)/C=C/c2ccc(O)c(OC)c2)ccc1O` [Cucurmin, curcumin, reference compound] here?
Answer: The IC50 was 148 nM.

Question: What about the “[8-HOA] (HCA-7 cells)” value [2] of the same compound?
Answer: Its value is 0.43 µM.

Question: How did the “Tumor Growth Reduction % (vs. Control)” value ([3]; twice/week up to 4-week, 5-FU 30 mg/kg, DGLA 8 mg/mouse, iminodibenzyl 25 mg/kg) turn out when `O=c1[nH]cc(F)c(=O)[nH]1` [Molecule 5-FU, 5-fluorouracil, reference compound] was run?
Answer: The value was 29%.

Question: For `CC(C)CCOc1ccc(N)cc1` [CP-24879, reference compound], which “[8-HOA] (HCA-7 cells)” value [2] is on record?
Answer: Its value is 0.42 µM.

Question: Which results are given for `CCCCC/C=C\C/C=C\C/C=C\CCCCCCC(=O)O` [DGLA, dihomo-γ-linolenic acid]?
Answer: Tumor Growth Reduction % (vs. Control) [3, 12]: did not deliver any inhibitory effect on tumor growth; [8-HOA] [3, 12]: 0.27 µg/g; Tumor Growth Reduction % (vs. Control) [4]: did not deliver any inhibitory effect on tumor growth; [8-HOA] [4]: 0.22 µg/g; Primary Tumor size (mm^3) ([5]; Day 14, vehicle 128): 106 mm^3; Primary Tumor size (mm^3) ([5]; Day 21, vehicle 916): 908 mm^3; Primary Tumor size (mm^3) ([5]; Day 28, vehicle 2956): 2631 mm^3; 8-HOA (μM) in Blood ([5]; Day 28): 0.31 µM; Reduced Tumor Growth vs. V.C. ([5]; Day 28): unable to inhibit primary tumor growth; mice that developed metastatic lung tumor [5]: All three mice in this group developed lung tumors

Question: Which “[PGE2] in tumors after 4-week treatment” value ([3]; 15 mg/kg every day, vehicle control 2.0 μg/g) does the source give for `c1ccc2c(c1)CCc1ccccc1N2` [Iminodibenzyl, 10,11-dihydro-5H-dibenz[b,f]azepine] here?
Answer: Its value is 1.6 µg/g.

Question: What about the “[AA] in tumors after 4-week treatment” value ([3]; 15 mg/kg every day, vehicle control 3.5 μg/g) of the same compound?
Answer: Its value is 2.2 µg/g.

Question: And the “Tumor Growth Reduction % (vs. Control)” value [3, 12]?
Answer: Its value is 17%.

Question: What about the “[8-HOA]” value [3, 12] of the same compound?
Answer: Its value is 0.07 µg/g.

Question: What about the “Tumor Growth Reduction % (vs. Control)” value ([3]; every day, 4-week, DGLA 5 mg/mouse oral, iminodibenzyl 15 mg/kg i.p., listed as Iminodibenzly) of the same compound?
Answer: Its value is 17%.

Question: And the “Tumor Growth Reduction % (vs. Control)” value [4]?
Answer: The value was 40%.

Question: And the “[8-HOA]” value [4]?
Answer: The value was 0.05 µg/g.

Question: And the “Tumor Growth Reduction % (vs. Control)” value ([4]; listed as Iminodibenzly)?
Answer: Its value is 40%.

Question: And the “[PGE2] in tumors after 4-week treatment” value ([4]; A549 tumor, 15 mg/kg every day, vehicle control 2.0 μg/g)?
Answer: Its value is 1.5 µg/g.

Question: What about the “[AA] in tumors after 4-week treatment” value ([4]; A549 tumor, 15 mg/kg every day, vehicle control 3.7 μg/g) of the same compound?
Answer: Its value is 2.5 µg/g.

Question: What about the “[8-HOA]” value [6] of the same compound?
Answer: The value was 0.83 µM.

Question: What about the IC50 [1, 13] of the same compound?
Answer: The IC50 was 104 nM.

Question: What about the “Cell Survival Rate” value ([7]; 10 μM) of the same compound?
Answer: The value was 66%.

Question: What about the “Cell Survival Rate” value ([7]; 10 μM, listed as iminodibenyl) of the same compound?
Answer: The value was 66%.

Question: What about the viability at 10 µM ([7]; Homo sapiens, HCA-7, 48 h, read-out: cell viability) of the same compound?
Answer: The viability at 10 µM was ~66%.

Question: And the “[8-HOA]” value [8]?
Answer: The value was 0.53 µM.

Question: And the “Primary Tumor size (mm^3)” value ([5]; Day 14, vehicle 128)?
Answer: Its value is 87 mm^3.

Question: And the “Primary Tumor size (mm^3)” value ([5]; Day 21, vehicle 916)?
Answer: The value was 476 mm^3.

Question: What about the “Lung tumor(s) per mouse” value ([5]; Day 21, metastatic lung tumors, 1 mouse, vehicle 4) of the same compound?
Answer: Its value is 0.

Question: And the “Primary Tumor size (mm^3)” value ([5]; Day 28, vehicle 2956)?
Answer: Its value is 1153 mm^3.

Question: What about the “8-HOA (μM) in Blood” value ([5]; Day 28) of the same compound?
Answer: The value was 0.021 µM.

Question: What about the “Reduced Tumor Growth vs. V.C.” value ([5]; Day 28, listed as Iminodibenzy, 15 mg/kg) of the same compound?
Answer: Its value is 58%.

Question: And the “Reduced Tumor Growth vs. V.C.” value ([5]; Day 28, listed as iminodibenzyl, 15 mg/kg)?
Answer: Its value is 58%.

Question: What about the “mice that developed metastatic lung tumor” value [5] of the same compound?
Answer: Its value is 1 of four mice.

Question: And the “Cell Survival Rate” value [9]?
Answer: Its value is 22%.

Question: And the “Cell Survival Rate” value ([9]; listed as iminodibenyl)?
Answer: The value was 22%.

Question: What about the “[8-HOA] (HCA-7 cells)” value [2] of the same compound?
Answer: Its value is 0.65 µM.

Question: And the “[8-HOA] (HCA-7 cells)” value ([2]; listed as iminodibenzyl)?
Answer: The value was > 0.5 µM and 0.65 µM.

Question: What about the “Cell Survival Rate” value [10] of the same compound?
Answer: The value was 73%.

Question: And the “Cell Survival Rate” value ([10]; listed as iminodibenyl)?
Answer: The value was 73%.

Question: For `C1=Cc2ccccc2Nc2ccccc21` [Iminostilbene, 5H-dibenz[b,f]azepine], which “suppression of cancer cell growth” value ([7]; 10 μM, colon cancer cells) is on record?
Answer: Its value is “unable to suppress cancer cell growth”.

Question: And the “[8-HOA] (HCA-7 cells)” value [2]?
Answer: Its value is “did not promote 8-HOA formation”.

Question: With `c1cc2c(cc1[C@H]1OC[C@H]3[C@@H]1CO[C@@H]3c1ccc3c(c1)OCO3)OCO2` [Sesame, sesamin, reference compound] as the compound, how does the IC50 [1, 13] read?
Answer: The IC50 was 346 nM.

Question: What about the “[8-HOA] (HCA-7 cells)” value [2] of the same compound?
Answer: Its value is 0.33 µM.

Question: How did the “Tumor Growth Reduction % (vs. Control)” value [11] turn out when `Nc1ccn([C@@H]2O[C@H](CO)[C@@H](O)C2(F)F)c(=O)n1` [Gemcitabine] was run?
Answer: The value was 24%.

Question: And the “Tumor Growth Reduction % (vs. Control)” value ([11]; listed as gemcitabine)?
Answer: The value was ~24%.
